# Source: patent publication US20050208496A1, “Methods of testing for bronchial asthma or chronic obstructive pulmonary disease” (Genox Research, Inc., priority 2002, published 2005)
# Test system: mouse counterpart genes
# Assay: Mouse GeneChip (MG-U74A to MG-U74C) analysis of lung and trachea of the OVA antigen-exposed bronchial hypersensitivity model, S-Sal group versus S-OVA group
# Format: in vivo
# [1] = S-Sal group vs S-OVA group, chip B, 1st
# [2] = S-Sal group vs S-OVA group, chip B, 2nd
# [3] = S-Sal group vs S-OVA group, chip B, 3rd
# [4] = S-Sal group vs S-OVA group, chip C, 1st
# [5] = S-Sal group vs S-OVA group, chip C, 2nd
# [6] = S-Sal group vs S-OVA group, chip C, 3rd
# [7] = S-Sal vs S-OVA group, 1st, P/A: A
# [8] = S-Sal vs S-OVA group, 1st, P/A: M
# [9] = S-Sal vs S-OVA group, 1st, P/A: P
# [10] = S-Sal vs S-OVA group, 2nd, P/A: A
# [11] = S-Sal vs S-OVA group, 2nd, P/A: P
substance,measurement,setting,value
"ovalbumin [OVA antigen, ovalbumin antigen used for sensitization and inhalation to induce bronchial hypersensitivity in mice]","Fold Change, SAM domain and HD domain, 1 (mouse Probe ID 109915_at)",[1],1.2
same,"Fold Change, Similar to dihydropyrimidine dehydrogenase, clone MGC: 37940 (mouse Probe ID 111949_at)",[1],0.588
same,"Fold Change, Similar to guanylate nucleotide binding protein 3, clone MGC: 6385 (mouse Probe ID 107939_at)",[1],1.9
same,"Fold Change, procollagen lysine, 2-oxoglutarate 5-dioxygenase 2 (mouse Probe ID 114376_at)",[1],0.833
same,"Fold Change, thioredoxin reductase 1 (mouse Probe ID 162642_at)",[1],0.323
same,"Fold Change, ESTs AI844322 (mouse Probe ID 110469_at)",[2],0.833
same,"Fold Change, RIKEN cDNA 2610017M01 gene (mouse Probe ID 105606_at)",[2],0.5
same,"Fold Change, RIKEN cDNA 2610017M01 gene (mouse Probe ID 163053_at)",[2],0.833
same,"Fold Change, SAM domain and HD domain, 1 (mouse Probe ID 109915_at)",[2],0.303
same,"Fold Change, Similar to dihydropyrimidine dehydrogenase, clone MGC: 37940 (mouse Probe ID 111949_at)",[2],0.588
same,"Fold Change, Similar to guanylate nucleotide binding protein 3, clone MGC: 6385 (mouse Probe ID 107939_at)",[2],1.2
same,"Fold Change, growth arrest and DNA-damage-inducible 45 gamma (mouse Probe ID 109336_at)",[2],1.7
same,"Fold Change, procollagen lysine, 2-oxoglutarate 5-dioxygenase 2 (mouse Probe ID 114376_at)",[2],1.1
same,"Fold Change, thioredoxin reductase 1 (mouse Probe ID 162642_at)",[2],2.8
same,"Fold Change, RIKEN cDNA 2610017M01 gene (mouse Probe ID 105606_at)",[3],0.667
same,"Fold Change, RIKEN cDNA 2610017M01 gene (mouse Probe ID 163053_at)",[3],1.2
same,"Fold Change, SAM domain and HD domain, 1 (mouse Probe ID 109915_at)",[3],1.1
same,"Fold Change, Similar to dihydropyrimidine dehydrogenase, clone MGC: 37940 (mouse Probe ID 111949_at)",[3],0.833
same,"Fold Change, Similar to guanylate nucleotide binding protein 3, clone MGC: 6385 (mouse Probe ID 107939_at)",[3],0.833
same,"Fold Change, thioredoxin reductase 1 (mouse Probe ID 162642_at)",[3],0.588
same,"Fold Change, RIKEN cDNA 6330404C01 gene (mouse Probe ID 166590_at)",[4],2
same,"Fold Change, expressed sequence AV022454 (mouse Probe ID 165678_i_at)",[4],1.3
same,"Fold Change, interferon-induced protein with tetratricopeptide repeats 1 (mouse Probe ID 168299_f_at)",[4],1.3
same,"Fold Change, small inducible cytokine subfamily B (Cys-X-Cys), member 11 (mouse Probe ID 140659_at)",[4],3.8
same,"Fold Change, RIKEN cDNA 6330404C01 gene (mouse Probe ID 166590_at)",[5],1
same,"Fold Change, expressed sequence AV022454 (mouse Probe ID 165678_i_at)",[5],1.3
same,"Fold Change, hydroxysteroid (17-beta) dehydrogenase 2 (mouse Probe ID 166141_i_at)",[5],0.526
same,"Fold Change, interferon-induced protein with tetratricopeptide repeats 1 (mouse Probe ID 168299_f_at)",[5],1.1
same,"Fold Change, sialyltransferase 1 (beta-galactoside alpha-2,6-sialyltransferase) (mouse Probe ID 167200_r_at)",[5],1.6
same,"Fold Change, small inducible cytokine subfamily B (Cys-X-Cys), member 11 (mouse Probe ID 140659_at)",[5],2
same,"Fold Change, expressed sequence AV022454 (mouse Probe ID 165678_i_at)",[6],2.2
same,"Fold Change, hydroxysteroid (17-beta) dehydrogenase 2 (mouse Probe ID 166141_i_at)",[6],1.9
same,"Fold Change, hydroxysteroid (17-beta) dehydrogenase 2 (mouse Probe ID 169670_at)",[6],0.385
same,"Fold Change, interferon-induced protein with tetratricopeptide repeats 1 (mouse Probe ID 168299_f_at)",[6],1.2
same,"Fold Change, small inducible cytokine subfamily B (Cys-X-Cys), member 11 (mouse Probe ID 140659_at)",[6],1
same,"Fold Change, DNA-damage inducible transcript 3 (mouse Probe ID 101429_at)",[7],0.37
same,"Fold Change, RAS guanyl releasing protein 1 (mouse Probe ID 98307_at)",[7],0.5
same,"Fold Change, RAS guanyl releasing protein 1 (mouse Probe ID 167498_i_at)",[7],0.833
same,"Fold Change, RIKEN cDNA A2301D9K23 gene (mouse Probe ID 163453_at)",[7],1.6
same,"Fold Change, RIKEN cDNA A2301D9K23 gene (mouse Probe ID 166475_r_at)",[7],1.2
same,"Fold Change, acid phosphatase 5, tartrate resistant (mouse Probe ID 162543_r_at)",[7],4.3
same,"Fold Change, cathepsin C (mouse Probe ID 101020_at)",[7],1.8
same,"Fold Change, cathepsin C (mouse Probe ID 161251_f_at)",[7],0.667
same,"Fold Change, cytokine inducible SH2-containing protein 1 (mouse Probe ID 92832_at)",[7],1.6
same,"Fold Change, dual specificity phosphatase 14 (mouse Probe ID 165144_r_at)",[7],0.5
same,"Fold Change, dual specificity phosphatase 14 (mouse Probe ID 171285_at)",[7],1.7
same,"Fold Change, fetuin beta (mouse Probe ID 108524_at)",[7],1.2
same,"Fold Change, keratin complex 1, acidic, gene 16 (mouse Probe ID 103589_at)",[7],1.8
same,"Fold Change, keratin complex 1, acidic, gene 16 (mouse Probe ID 164428_i_at)",[7],1.5
same,"Fold Change, nuclear factor, interleukin 3, regulated (mouse Probe ID 164758_i_at)",[7],1.4
same,"Fold Change, serine (or cysteine) proteinase inhibitor, clade B (ovalbumin), member 2 (mouse Probe ID 137166_r_at)",[7],0.667
same,"Fold Change, transmembrane 4 superfamily member 8 (mouse Probe ID 97912_at)",[7],3.6
same,"Fold Change, ubiquitin D (mouse Probe ID 169362_f_at)",[7],1.2
same,"Fold Change, neutrophil cytosolic factor 2 (mouse Probe ID 102326_at)",[8],2
same,"Fold Change, ubiquitin fusion degradation 1 like (mouse Probe ID 93303_at)",[8],0.567
same,"Fold Change, DEAD (aspartate-glutamate-alanine-aspartate) box polypeptide 5 (mouse Probe ID 93493_at)",[9],1
same,"Fold Change, DEAD (aspartate-glutamate-alanine-aspartate) box polypeptide 5 (mouse Probe ID 113899_at)",[9],0.909
same,"Fold Change, RIKEN cDNA 4933419D20 gene (mouse Probe ID 97442_at)",[9],1.2
same,"Fold Change, RIKEN cDNA 4933419D20 gene (mouse Probe ID 112237_at)",[9],1.1
same,"Fold Change, cathepsin C (mouse Probe ID 101019_at)",[9],1.2
same,"Fold Change, dual specificity phosphatase 14 (mouse Probe ID 162702_at)",[9],1.2
same,"Fold Change, expressed sequence AI463430 (mouse Probe ID 112883_at)",[9],1
same,"Fold Change, fatty acid binding protein 4, adipocyte (mouse Probe ID 100567_at)",[9],0.556
same,"Fold Change, integrin-associated protein (mouse Probe ID 103611_at)",[9],1
same,"Fold Change, ribosomal protein S16 (mouse Probe ID 97647_at)",[9],1
same,"Fold Change, ribosomal protein S16 (mouse Probe ID 169860_r_at)",[9],33
same,"Fold Change, serine (or cysteine) proteinase inhibitor, clade B (ovalbumin), member 2 (mouse Probe ID 92978_s_at)",[9],2.1
same,"Fold Change, serine (or cysteine) proteinase inhibitor, clade B (ovalbumin), member 6 (mouse Probe ID 96060_at)",[9],1.1
same,"Fold Change, signal transducer and activator of transcription 1 (mouse Probe ID 101465_at)",[9],1.8
same,"Fold Change, signal transducer and activator of transcription 1 (mouse Probe ID 114635_at)",[9],2
same,"Fold Change, ubiquitin D (mouse Probe ID 168938_r_at)",[9],1.4
same,"Fold Change, DNA-damage inducible transcript 3 (mouse Probe ID 101429_at)",[10],0.526
same,"Fold Change, RAS guanyl releasing protein 1 (mouse Probe ID 167498_i_at)",[10],1.6
same,"Fold Change, RIKEN cDNA A2301D9K23 gene (mouse Probe ID 163453_at)",[10],1.4
same,"Fold Change, RIKEN cDNA A2301D9K23 gene (mouse Probe ID 166475_r_at)",[10],0.556
same,"Fold Change, acid phosphatase 5, tartrate resistant (mouse Probe ID 162543_r_at)",[10],6.8
same,"Fold Change, cathepsin C (mouse Probe ID 101020_at)",[10],0.625
same,"Fold Change, cathepsin C (mouse Probe ID 161251_f_at)",[10],1
same,"Fold Change, cytokine inducible SH2-containing protein 1 (mouse Probe ID 92832_at)",[10],1.9
same,"Fold Change, dual specificity phosphatase 14 (mouse Probe ID 165144_r_at)",[10],0.833
same,"Fold Change, fetuin beta (mouse Probe ID 108524_at)",[10],0.278
same,"Fold Change, keratin complex 1, acidic, gene 16 (mouse Probe ID 103589_at)",[10],1.3
same,"Fold Change, keratin complex 1, acidic, gene 16 (mouse Probe ID 164428_i_at)",[10],1.6
same,"Fold Change, ribosomal protein S16 (mouse Probe ID 169860_r_at)",[10],1.4
same,"Fold Change, serine (or cysteine) proteinase inhibitor, clade B (ovalbumin), member 2 (mouse Probe ID 137166_r_at)",[10],0.667
same,"Fold Change, transmembrane 4 superfamily member 8 (mouse Probe ID 97912_at)",[10],1
same,"Fold Change, ubiquitin D (mouse Probe ID 92715_at)",[10],0.455
same,"Fold Change, ubiquitin D (mouse Probe ID 168938_r_at)",[10],0.667
same,"Fold Change, ubiquitin D (mouse Probe ID 169362_f_at)",[10],1
same,"Fold Change, ubiquitin fusion degradation 1 like (mouse Probe ID 93303_at)",[10],0.303
same,"Fold Change, RAS guanyl releasing protein 1 (mouse Probe ID 98307_at)","S-Sal vs S-OVA group, 2nd, P/A: M",1.7
same,"Fold Change, DEAD (aspartate-glutamate-alanine-aspartate) box polypeptide 5 (mouse Probe ID 93493_at)",[11],1
same,"Fold Change, DEAD (aspartate-glutamate-alanine-aspartate) box polypeptide 5 (mouse Probe ID 113899_at)",[11],0.714
same,"Fold Change, RIKEN cDNA 4933419D20 gene (mouse Probe ID 97442_at)",[11],1
same,"Fold Change, RIKEN cDNA 4933419D20 gene (mouse Probe ID 112237_at)",[11],1
same,"Fold Change, acid phosphatase 5, tartrate resistant (mouse Probe ID 98859_at)",[11],1.4
